The NIST ThermoML archive (doi:10.1016/j.fluid.2011.04.017)
± gives the expanded uncertainty stated by the source.

Conditions: 101.33 kPa, Liquid, Vibrating tube method

| Structure (SMILES) | mass density (298.1 K) [kg/m3] | mass density (293.15 K) [kg/m3] | mass density (298.15 K) [kg/m3] |
| --- | --- | --- | --- |
| CCCCn1cc[n+](C)c1.F[P-](F)(F)(F)(F)F [1-butyl-3-methylimidazolium hexafluorophosphate] | 1366.38 ± 1.7 |  |  |
| CCCCCCCCCn1cc[n+](C)c1.F[P-](F)(F)(F)(F)F [1-nonyl-3-methylimidazolium hexafluorophosphate] |  | 1198.32 ± 0.2 | 1194.34 ± 0.19 |
